Results published in paper PMC10799935, “Discovery of a peripheral 5HT2A antagonist as a clinical candidate for metabolic dysfunction-associated steatohepatitis” (Nature Communications, 2024).
Several values for one entry are separate records, joined by “and”; a condition that tells them apart may be missing. Equal entries are not always repeated. Entries after “also recorded” stand apart in the source; their conditions may differ.

What was measured:
[1] = test system: HFD-fed C57BL/6J mice; test: DIO mice: intraperitoneal glucose tolerance test (IPGTT); format: in vivo, mouse; conditions: GTT, DIO mice, PO
Procedure: For the glucose tolerance test, overnight fasted mice were intraperitoneally injected with 2 g/kg D-glucose (Sigma-Aldrich). Glucose concentrations were measured using a Gluco DR. TOP glucometer (Allmedicus). The AUC (area under the curve) during the GTT was calculated using GraphPad Prism 8.0 software (La Jolla, CA, USA) by the trapezoidal method.

[2] = test system: HFD-fed C57BL/6J mice; test: DIO mice: blood profiling (serum cholesterol, triglyceride); format: in vivo, mouse; conditions: for Serum TG levels, Mean Diff. (Vehicle vs. treated) / Serum total cholesterol levels, Mean Diff. (Vehicle vs. treated) / Serum TG levels, group mean / Serum total cholesterol levels (CHO), group mean: DIO mice; for Serum TG levels, Mean Diff. (Vehicle vs. treated) / Serum total cholesterol levels, Mean Diff. (Vehicle vs. treated): Dunnett's multiple comparisons test; for Serum TG levels, group mean / Serum total cholesterol levels (CHO), group mean: PO
Procedure: Blood samples were obtained by cardiac puncture, and plasma was isolated. Blood profiling was performed by GC Pharma (Green Cross Corporation). Plasma TG and cholesterol were detected with an in vitro enzymatic colorimetric assay (CHOL2 and TRIGL; Roche, Germany) using a Cobas 8000 clinical analyzer with a c702 module (Roche).

[3] = test system: HFD-fed C57BL/6J mice; test: DIO mice: quantification of hepatic triglyceride; format: in vivo, mouse; conditions: DIO mice; for Hepatic TG levels, Mean Diff. (Vehicle vs. treated): Dunnett's multiple comparisons test; for Hepatic TG Levels, TG per protein, group mean: PO, liver
Procedure: Liver tissues were homogenized in 5% NP-40 using FastPrep-24. To solubilize fat, the homogenates were heated to 95 °C for 5 min and cooled at 23 °C, and repeated. Triglyceride Reagent (Sigma-Aldrich) or DW was added and incubated at 37 °C for 30 min to hydrolyze TG into glycerol. For the colorimetric assay of hydrolyzed TG levels, samples were incubated with Free Glycerol Reagent (Sigma-Aldrich) at 37 °C for 5 min. Differences in absorbance at 540 nm between hydrolyzed or non-hydrolyzed TG were quantified using a glycerol standard (Sigma-Aldrich). […]

[4] = In vivo PK with diverse doses (5, 10, 20 mpk) for PK and PD co-relation
Procedure: In this paper, the authors based on their previous studies on 5-HT2A LKO mice and 5HT2A antagonists, try to synthesize a serial of new derivatives based on the compound 2 (Clarinex) to develop oral drug candidates of […]
Then the authors tested the pharmacokinetics of compound 11c both in rats and dogs by iv and gavage administration. Besides, the tissue distribution of compound 11c was also determined by […]
NASH and fibrosis. The following questions may need to be answered by the authors.
Comment 1: In general, after gavage administration for 8 weeks (page 178-179) or 12 weeks (page 274-275), the compound 11c mainly distributed in digestive track especially in intestines with comparatively lower plasma drug concentration as well as in the other organs.
Response: We appreciate the Reviewer’s comment. For most oral drugs, the high level of total radioactivity is often observed in gastrointestinal tract in QWBA (Quantitative Whole Body Autoradiography). In the study of QWBA for compound 11c, tissue distribution was evaluated in multiple time points. Total radioactivities in stomach and small intestine were high at early time points and decreased at late time points. […]

[5] = target: CYP2C9 (Homo sapiens, UniProt P11712); test: in vitro
[6] = 5mpk, individual animals, 5 mg/kg
[7] = 10mpk, individual animals, 10 mg/kg

Chain of CYP2C9 (P11712 whole entry): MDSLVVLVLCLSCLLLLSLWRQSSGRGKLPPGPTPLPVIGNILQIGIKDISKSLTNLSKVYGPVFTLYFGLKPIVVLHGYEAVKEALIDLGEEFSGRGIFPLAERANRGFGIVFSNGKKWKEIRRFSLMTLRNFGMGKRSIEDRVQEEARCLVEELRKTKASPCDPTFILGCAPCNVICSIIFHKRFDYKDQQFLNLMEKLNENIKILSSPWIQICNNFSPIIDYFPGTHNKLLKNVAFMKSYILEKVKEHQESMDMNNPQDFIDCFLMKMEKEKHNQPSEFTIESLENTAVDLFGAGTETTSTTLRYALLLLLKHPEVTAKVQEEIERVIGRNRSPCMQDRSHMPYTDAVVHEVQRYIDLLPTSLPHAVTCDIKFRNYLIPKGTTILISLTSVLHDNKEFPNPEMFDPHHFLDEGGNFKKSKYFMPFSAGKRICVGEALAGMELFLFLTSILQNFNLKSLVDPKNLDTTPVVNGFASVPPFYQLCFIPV

Cc1nc2n(c(=O)c1CCN1CCC(=C3c4ccc(Cl)cc4CCc4cccnc43)CC1)CCCC2O (stereo not drawn) [Compound 11c]
Blood Glucose Level 15 min [1, 6]: 629.0 mg/dL and 541.0 mg/dL and 509.0 mg/dL and 553.5 mg/dL and 596.5 mg/dL and 427.0 mg/dL
Blood Glucose Level 30 min ([1]; 5mpk, group mean): 575.0 mg/dL
Blood Glucose Level 30 min [1, 6]: 662.5 mg/dL and 628.5 mg/dL and 650.5 mg/dL and 617.5 mg/dL and 539.5 mg/dL and 470.5 mg/dL and 456.0 mg/dL
Blood Glucose Level 60 min ([1]; 5mpk, group mean): 473.2 mg/dL
Blood Glucose Level 60 min [1, 6]: 526.0 mg/dL and 500.0 mg/dL and 631.5 mg/dL and 438.0 mg/dL and 309.5 mg/dL and 481.5 mg/dL and 426.0 mg/dL
Blood Glucose Level 90 min ([1]; 5mpk, group mean): 359.1 mg/dL
Blood Glucose Level 90 min [1, 6]: 412.0 mg/dL and 393.0 mg/dL and 445.5 mg/dL and 295.0 mg/dL and 202.0 mg/dL and 352.0 mg/dL and 414.5 mg/dL
Blood Glucose Level 120 min ([1]; 5mpk, group mean): 270.4 mg/dL
Blood Glucose Level 120 min [1, 6]: 297.0 mg/dL and 295.0 mg/dL and 358.5 mg/dL and 219.0 mg/dL and 181.0 mg/dL and 242.5 mg/dL and 299.5 mg/dL
Blood Glucose Level AUC ([1]; 5mpk, group mean): 26885.0 mg·min/dL
Blood Glucose Level 0 min ([1]; 10mpk, group mean): 183.9 mg/dL
Blood Glucose Level 0 min [1, 7]: 113.5 mg/dL and 200.5 mg/dL and 204.0 mg/dL and 222.5 mg/dL and 179.0 mg/dL and 184.0 mg/dL
Blood Glucose Level 15 min ([1]; 10mpk, group mean): 527.5 mg/dL
Blood Glucose Level 15 min [1, 7]: 483.5 mg/dL and 423.0 mg/dL and 498.0 mg/dL and 646.0 mg/dL and 555.0 mg/dL and 559.5 mg/dL
Blood Glucose Level 30 min ([1]; 10mpk, group mean): 591.4 mg/dL
Blood Glucose Level 30 min [1, 7]: 550.5 mg/dL and 531.0 mg/dL and 653.0 mg/dL and 657.0 mg/dL and 577.0 mg/dL and 580.0 mg/dL
Blood Glucose Level 60 min ([1]; 10mpk, group mean): 486.8 mg/dL
Blood Glucose Level 60 min [1, 7]: 370.0 mg/dL and 458.5 mg/dL and 558.0 mg/dL and 603.0 mg/dL and 357.5 mg/dL and 574.0 mg/dL
Blood Glucose Level 90 min ([1]; 10mpk, group mean): 365.9 mg/dL
Blood Glucose Level 90 min [1, 7]: 283.5 mg/dL and 422.0 mg/dL and 442.0 mg/dL and 440.5 mg/dL and 227.0 mg/dL and 380.5 mg/dL
Blood Glucose Level 120 min ([1]; 10mpk, group mean): 247.7 mg/dL
Blood Glucose Level 120 min [1, 7]: 170.0 mg/dL and 260.5 mg/dL and 387.0 mg/dL and 315.5 mg/dL and 148.5 mg/dL and 204.5 mg/dL
Blood Glucose Level AUC ([1]; 10mpk, group mean): 28219.0 mg·min/dL
Serum TG levels, Mean Diff. (Vehicle vs. treated) ([2]; 5mpk): 32.28 mg/dL
Serum total cholesterol levels, Mean Diff. (Vehicle vs. treated) ([2]; 5mpk): -18.72 mg/dL
Serum TG levels, Mean Diff. (Vehicle vs. treated) ([2]; 10mpk): 36.37 mg/dL
Serum total cholesterol levels, Mean Diff. (Vehicle vs. treated) ([2]; 10mpk): 0.9883 mg/dL
Serum TG levels, group mean ([2]; 5mpk): 71.94 mg/dL
Serum total cholesterol levels (CHO), group mean ([2]; 5mpk, 5 mg/kg): 220.6 mg/dL
Serum TG levels, group mean ([2]; 10mpk): 67.86 mg/dL
Serum total cholesterol levels (CHO), group mean ([2]; 10mpk, 10 mg/kg): 200.9 mg/dL
serum triglyceride levels ([2]; high-fat diet-induced NAFLD mice): significant reduction
Hepatic TG levels, Mean Diff. (Vehicle vs. treated) ([3]; 5mpk): 5.95 mg/g protein
Hepatic TG levels, Mean Diff. (Vehicle vs. treated) ([3]; 10mpk): 31.37 mg/g protein
Hepatic TG Levels, TG per protein, group mean ([3]; 5mpk): 79.94 mg/g protein
Hepatic TG Levels, TG per protein, group mean ([3]; 10mpk): 54.51 mg/g protein
hepatic TG concentration ([3]; vs vehicle): significant reduction; also recorded: decreased
concentration present up to 8 hrs [4]: more than 20 nM and > 10 ng/mL
inhibition at 10 µM [5]: 3.17%
